Experimental data: US12729377B2, “RNAi agents and compositions for inhibiting expression of angiopoietin-like 3 (ANGPTL3), and methods of use” (Arrowhead Pharmaceuticals, Inc., priority 2017, dated 2026)
In the oligonucleotide strings, read from the 5' end, every base follows the letter of its sugar. An asterisk marks phosphorothioate; unmarked linkages are phosphodiester. Other units and linkages are bracketed, terminal groups are in braces. A string of capitals states the bases alone. {NAG37} = tridentate N-acetyl-galactosamine targeting ligand, structure (NAG37)s; [invAb] = inverted abasic unit; m = 2'-O-methyl; f = 2'-fluoro

Columns and labels:
ANGPTL3 protein = assay: Example 6: serum ANGPTL3 protein by ELISA in mice; format: in vivo, C57bl/6 mice; details: for Avg ANGPTL3, normalized to pre-treatment and control: 0.5 mg/kg single SC injection on day 1, serum, n=3
Experimental: To assess the in vivo activity of additional ANGPTL3 RNAi agents that are designed to target position 304 on the ANGPTL3 gene, six- to eight-week-old female C57bl/6 mice were used. Pre-dose serum samples were taken at day −1 after a four hour fast. At day 1, each mouse was given a single subcutaneous administration of 200 μl containing 0.5 mg/kg (mpk) of an ANGPTL3 RNAi agent in D5W (dextrose in 5% water), or control (D5W) with no RNAi agent, according to the dosing groups recited in Table 25.
Each of the RNAi agents included a modified sequence and an N-acetyl-galactosamine-containing targeting ligand conjugated to the 5′ terminal end of the sense strand. (See Tables 3, 4, and 5 for modified sequences and targeting ligand structures). The injections were performed between the skin and muscle (i.e. subcutaneous injections) into the loose skin over the neck and shoulder area. Three (3) mice in each group were tested (n=3). Serum was collected on days 8, 15, 22, 30, and on day 43 for certain groups (i.e., Groups 1, 2, 5, and 10 only). Mice were fasted for four hours prior to each collection. ANGPTL3 protein levels in serum were measured by ELISA assay (R&D Systems), according to the manufacturer's recommendations. Triglycerides, total cholesterol, high-density lipoprotein (HDL), and low-density lipoprotein (LDL) in serum were measured on a Cobas® Integra 400 (Roche Diagnostics), according to the manufacturer's recommendations.
The ANGPTL3 protein levels, triglyceride levels, total cholesterol levels, HDL levels, and LDL levels for each animal were normalized. For normalization, the level of ANGPTL3 protein, triglyceride, HDL, and total cholesterol, respectively, for each animal at a time point, was divided by the pre-treatment level of expression in that animal (in this case at day −1) to determine the ratio of expression “normalized to pre-treatment.” Expression at a specific time point was then normalized to the D5W control group by dividing the “normalized to pre-treatment” ratio for an individual animal by the mean “normalized to pretreatment” ratio of all mice in the D5W control group.

ANGPTL3 gene = assay: Example 12: serum LDL in LDLR knockout mice; format: in vivo, LDLR KO mice; details: 3.0 mg/kg sc day 1
From the text: To evaluate the effect of RNAi agent administration in a disease model, mice having a genetic mutation for the LDL receptor (referred to herein as LDLR KO mice) were commercially obtained (The Jackson Laboratory). The LDLR KO mice are homozygous for the Ldlr^tm1Her mutation, and have elevated serum cholesterol levels, particularly when placed on a high fat diet. For three weeks prior to the onset of the study, thirty-nine (39) LDLR KO mice were placed on a high fat diet (Teklad Custom Diets TD.88137). An additional eight (8) LDLR KO mice were placed on a normal chow diet over the same three-week period. Pre-dose serum samples were taken on day −15 and day −1 after a four hour fast. At day 1, each mouse was given a single subcutaneous administration of 200 μl/30 g animal body weight containing the respective mg/kg dose of an ANGPTL3 RNAi agent in D5W (dextrose in 5% water), control (D5W) with no RNAi agent, or a control RNAi agent that included a nucleotide sequence designed to target the Hepatitis B Virus (HBV) genome. A second injection of the same formulation was administered to the animals on day 29. The dosing regimen for the study is recited in the following Table 60:
Each mouse remained on its respective diet through the duration of study. The RNAi agent tested (AD05488) included a modified sequence and an N-acetyl-galactosamine-containing targeting ligand conjugated to the 5′ terminal end of the sense strand. (See Tables 3, […] modified sequences and targeting ligand structures). The injections were performed between the skin and muscle (i.e. subcutaneous injections) into the loose skin over the neck and shoulder area. Serum was collected on days 8, 15, 22, 29 (pre-second dose), 36, 43, 50, and 57. LDLR KO mice were fasted for four hours prior to each collection. On day 15, four (4) LDLR KO mice from Groups 1, 2, and 3 (i.e., the groups being administered the high fat “Western” diet) were sacrificed after serum collection, and on day 29, an additional four (4) LDLR KO mice from Groups 1, 2, and 3 were sacrificed after serum collection, for the purpose of performing mRNA assessments.
ANGPTL3 protein levels in serum were measured by ELISA assay (R&D Systems), according to the manufacturer's recommendations. Triglycerides, total cholesterol, high-density lipoprotein (HDL), and low-density lipoprotein (LDL) in serum were measured on a Cobas® Integra 400 (Roche Diagnostics), according to the manufacturer's recommendations.
The ANGPTL3 protein levels, triglyceride levels, total cholesterol levels, HDL levels, and LDL levels for each animal were normalized. For normalization, respective levels of ANGPTL3 protein, TG, total cholesterol, HDL, or LDL for each animal at a time point was divided by the average pre-treatment level of expression in that animal (in this case the average of day −15 and day −1) to determine the ratio of expression “normalized to pre-treatment.”
Expression at a specific time point was then normalized to the D5W control group that was administered the same diet (i.e., either the high fat “Western” diet or the normal chow-fed diet) by dividing the “normalized to pre-treatment” ratio for an individual animal by the mean “normalized to pretreatment” ratio of all mice in the D5W control group on the respective same diet, resulting in expression for each time point normalized to that in the control group.

With “AD05488: RNAi agent duplex: antisense AM07235-AS, sense AM07234-SS (antisense mU*fA*mC*fUmGfAmUfCmAfAmAfUmAfUmGfUmUfGmAfG*mC; sense {NAG37}*[invAb]*mGmCmUmCmAmAmCmAfUfAfUmUmUmGmAmUmCmAmGmUmA*[invAb])” the “Avg ANGPTL3, normalized to pre-treatment and control” value (“Avg ANGPTL3, normalized” below) (ANGPTL3 protein; Day 8) was 0.221, the “Avg ANGPTL3, normalized” value (ANGPTL3 protein; Day 15) was 0.272 and the “Avg ANGPTL3, normalized” value (ANGPTL3 protein; Day 22) was 0.254. The “Avg ANGPTL3, normalized” value (ANGPTL3 protein; Day 30) was 0.381, the “Avg ANGPTL3, normalized” value (ANGPTL3 protein; Day 43) was 0.475 and the “reduction in ANGPTL3 protein levels” value (ANGPTL3 protein; through at least day 22, single 0.5 mg/kg subcutaneous, C57bl/6 mice) was “substantial reduction”. The “Avg LDL Normalized to Pre-Treatment and Control (Diet Matched)” value (“Avg LDL Normalized” for short) (ANGPTL3 gene; High Fat Diet, Day 8) was 0.547, the “Avg LDL Normalized” value (ANGPTL3 gene; High Fat Diet, Day 15) was 0.476 and the “Avg LDL Normalized” value (ANGPTL3 gene; High Fat Diet, Day 22) was 0.429. The “Avg LDL Normalized” value (ANGPTL3 gene; High Fat Diet, Day 29 (pre-second dose)) was 0.419, the “Avg LDL Normalized” value (ANGPTL3 gene; Normal Diet, Day 8) was 0.558 and the “Avg LDL Normalized” value (ANGPTL3 gene; Normal Diet, Day 15) was 0.606. For the same substance, the “Avg LDL Normalized” value (ANGPTL3 gene; Normal Diet, Day 22) was 0.662 and the “Avg LDL Normalized” value (ANGPTL3 gene; Normal Diet, Day 29 (pre-second dose)) was 0.563.
